Drawing on patent US8008505B2, “Indazole or 4,5,6,7-tetrahydro-indazole derivatives” (Hoffmann-La Roche Inc., priority 2008, dated 2011), this text covers IC50 for 23 compounds.

In general, pIC50 refers to the negative decadic logarithm of the IC50, by convention in mol/L. Read a high pIC50 as a low IC50.

pIC50: −log10 of the molar value.

The target in this experiment is T1, FXR ligand binding domain (Homo sapiens, UniProt Q96RI1).
T1 sequence (Q96RI1 1-486): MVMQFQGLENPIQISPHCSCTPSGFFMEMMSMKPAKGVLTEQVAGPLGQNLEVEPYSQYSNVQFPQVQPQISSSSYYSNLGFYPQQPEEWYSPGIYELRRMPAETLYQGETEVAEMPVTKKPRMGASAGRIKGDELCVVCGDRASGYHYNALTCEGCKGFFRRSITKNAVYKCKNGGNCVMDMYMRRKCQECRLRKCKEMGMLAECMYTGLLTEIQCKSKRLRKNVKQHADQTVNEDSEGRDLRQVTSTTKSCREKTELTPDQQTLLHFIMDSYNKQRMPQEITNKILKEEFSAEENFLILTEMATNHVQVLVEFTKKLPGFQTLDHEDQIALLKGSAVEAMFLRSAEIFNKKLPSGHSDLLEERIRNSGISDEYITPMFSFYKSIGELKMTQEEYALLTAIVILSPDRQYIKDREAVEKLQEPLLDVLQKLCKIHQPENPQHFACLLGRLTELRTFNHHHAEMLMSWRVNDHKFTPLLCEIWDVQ
As to the kind of experiment: Radioligand binding assay (radioligand displacement, scintillation proximity). To be noted: GST-FXR LBD fusion protein on SPA beads, radioligand 2,N-dicyclohexyl-2-[2-(2,4 dimethoxy-phenyl)-benzoimidazol-1-yl]-acetamide, RT 30 minutes. The protocol: The following tests were carried out in order to determine the activity of the compounds of formula I. Background information on the binding assay can be found in: Nichols J S et al. “Development of a scintillation proximity assay for peroxisome proliferator-activated receptor gamma ligand binding domain”, (1998) Anal. Biochem. 257: 112-119.
Bacterial and mammalian expression vectors were constructed to produce glutathione-s-transferase (GST) and Gal4 DNA binding domain (GAL) proteins fused to the ligand binding domain (LBD) of human FXR (aa 193-473). To accomplish this, the portions of the sequences encoding the FXR LBD were amplified by polymerase chain reaction (PCR) from a full-length clone by PCR and then subcloned into the plasmid vectors. The final clone was verified by DNA sequence analysis.
The induction, expression, and subsequent purification of GST-LBD fusion protein was performed in E. coli strain BL21(pLysS) cells by standard methods (Current Protocols in Molecular Biology, Wiley Press, ed. Ausubel et al).
Radioligand Binding Assay
Binding of test substances to the FXR ligand binding domain was assessed in a radioligand displacement assay. The assay was performed in a buffer consisting of 50 mM Hepes, pH 7.4, 10 mM NaCl, 5 mM MgCl2. For each reaction well in a 96-well plate, 40 nM of GST-FXR LBD fusion protein was bound to 10 μg glutathione ytrium silicate SPA beads (Pharmacia Amersham) in a final volume of 50 μl by shaking. A radioligand (eg. 40 nM) of 2,N-dicyclohexyl-2-[2-(2,4 dimethoxy-phenyl)-benzoimidazol-1-yl]-acetamide) was added, and the reaction incubated at RT for 30 minutes in the presence of test compounds followed by scintillation proximity counting. All binding assays were performed in 96-well plates and the amount of bound ligand was measured on a Packard TopCount using OptiPlates (Packard). Dose response curves were performed within a range of concentration from 6×10^−9 M to 2.5×10^−5 M.
On the technique in general: Displacement assays read how much labelled ligand stays bound in the presence of the test substance.
As for `O=C(Nc1ccc(-c2nnn[nH]2)cc1)C(c1c2c(nn1-c1ccc(Cl)cc1)CCCC2)C1CCCCC1` (racemic) [Example 57, [rac]-2-[2-(4-Chloro-phenyl)-4,5,6,7-tetrahydro-2H-indazol-3-yl]-2-cyclohexyl-N[4-(1H-tetrazol-5-yl)-phenyl]-acetamide], the pIC50 was 7.35. To `Fc1cc(-c2nnn[nH]2)ccc1OCC(c1c2c(nn1-c1ccc(Cl)cc1)CCCC2)C1CCCCC1` (racemic) [Example 38, [rac]-2-(4-Chloro-phenyl)-3-{1-cyclohexyl-2-[2-fluoro-4-(1H-tetrazol-5-yl)-phenoxy]-ethyl}-4,5,6,7-tetrahydro-2H-indazole] belongs 6.96; to `O=C(O)c1ccc(OCC(c2c3ccccc3nn2-c2ccc(Cl)cc2)C2CCCCC2)nc1` (racemic) [Example 53, [rac]-6-{2-[2-(4-Chloro-phenyl)-2H-indazol-3-yl]-2-cyclohexyl-ethoxy}-nicotinic acid], 6.14; to `O=C(N[C@H]1CC[C@H](O)CC1)C(c1c2c(nn1-c1ccc(Cl)cc1)CCCC2)C1CCCCC1` (mixture of isomers) [Example 59, [rac]-2-[2-(4-Chloro-phenyl)-4,5,6,7-tetrahydro-2H-indazol-3-yl]-2-cyclohexyl-(trans)-N-(4-hydroxy-cyclohexyl)-acetamide], 5.52. The same measure for `O=C(Nc1ccc(OC2(C(=O)O)CC2)cc1F)C(c1c2c(nn1-c1ccc(Cl)cc1)CCCC2)C1CCCCC1` (single isomer, unassigned; (+)) [Example 22, (+)-1-(4-{2-[2-(4-Chloro-phenyl)-4,5,6,7-tetrahydro-2H-indazol-3-yl]-2-cyclohexyl-acetylamino}-3-fluoro-phenoxy)-cyclopropanecarboxylic acid]: 5.69; for `O=C(O)c1ccc(NC(=O)C(O)(c2c3c(nn2-c2ccc(Cl)cc2)CCCC3)C2CCCCC2)c(F)c1` (centres unmarked) [Example 5, 4-{2-[2-(4-Chloro-phenyl)-4,5,6,7-tetrahydro-2H-indazol-3-yl]-2-cyclohexyl-2-hydroxy-acetylamino}-3-fluoro-benzoic acid]: 5.69. To `O=C(Nc1ccc(OC2(C(=O)O)CC2)cc1F)[C@H](c1c2c(nn1-c1ccc(Cl)cc1)CCCC2)C1CCCCC1` [Example 23, (−)-1-(4-{2-[2-(4-Chloro-phenyl)-4,5,6,7-tetrahydro-2H-indazol-3-yl]-2-cyclohexyl-acetylamino}-3-fluoro-phenoxy)-cyclopropanecarboxylic acid] belongs 7.68. Compound `Fc1cc(-c2nnn[nH]2)ccc1OCC(c1c2ccccc2nn1-c1ccc(Cl)cc1)C1CCCCC1` (racemic) [Example 31, [rac]-2-(4-Chloro-phenyl)-3-{1-cyclohexyl-2-[2-fluoro-4-(2H-tetrazol-5-yl)-phenoxy]-ethyl}-2H-indazole] showed a pIC50 of 7.00.

In turn, `Cc1cc(-c2nnn[nH]2)cc(C)c1OCC(c1c2ccccc2nn1-c1ccc(Cl)cc1)C1CCCCC1` (racemic) [Example 52, [rac]-2-(4-Chloro-phenyl)-3-{1-cyclohexyl-2-[2,6-dimethyl-4-(2H-tetrazol-5-yl)-phenoxy]-ethyl}-2H-indazole] gave a pIC50 of 8.40. The same measure for `O=C(NC1CCCCC1)C(c1c2cc(F)c(F)cc2nn1-c1ccc(Cl)cc1)C1CCCCC1` (racemic) [Example 24, [rac]-2-[2-(4-Chloro-phenyl)-5,6-difluoro-2H-indazol-3-yl]-2,N-dicyclohexyl-acetamide]: 6.17. To `O=C(O)c1ccc(NC(=O)C(c2c3c(nn2-c2ccc(Cl)cc2)CCCC3)C2CCCCC2)c(F)c1` (centres unmarked) [Example 11, 4-{2-[2-(4-Chloro-phenyl)-4,5,6,7-tetrahydro-2H-indazol-3-yl]-2-cyclohexyl-acetylamino}-3-fluoro-benzoic acid] belongs 5.89; to `O=C(NC1CCCC1)C(O)(c1c2c(nn1-c1ccc(Cl)cc1)CCCC2)C1CCCCC1` (centres unmarked) [Example 9, 2-[2-(4-Chloro-phenyl)-4,5,6,7-tetrahydro-2H-indazol-3-yl]-2-cyclohexyl-N-cyclopentyl-2-hydroxy-acetamide], 5.31.

The compound `N#Cc1ccc(COC(c2c3cc(F)c(F)cc3nn2-c2ccc(Cl)cc2)C2CCCCC2)c(F)c1` (racemic) [Example 41, [rac]-4-{[2-(4-Chloro-phenyl)-5,6-difluoro-2H-indazol-3-yl]-cyclohexyl-methoxymethyl}-3-fluoro-benzonitrile] showed a pIC50 of 5.15. In turn, `Cc1cc(C(=O)O)cc(C)c1OC(c1c2cc(F)c(F)cc2nn1-c1ccc(Cl)cc1)C1CCCCC1` (racemic) [Example 34, [rac]-4-{[2-(4-Chloro-phenyl)-5,6-difluoro-2H-indazol-3-yl]-cyclohexyl-methoxy}-3,5-dimethyl-benzoic acid] showed a pIC50 of 5.67. The same measure for `N#Cc1ccc(OC(c2c3cc(F)c(F)cc3nn2-c2ccc(Cl)cc2)C2CCCCC2)c(F)c1` (racemic) [Example 35, [rac]-4-{[2-(4-Chloro-phenyl)-5,6-difluoro-2H-indazol-3-yl]-cyclohexyl-methoxy}-3-fluoro-benzonitrile]: 6.06; for `O=C(NC1CCCCC1)C(c1ccccc1)c1c2ccccc2nn1-c1ccccc1` (centres unmarked) [Example 3, N-Cyclohexyl-2-phenyl-2-(2-phenyl-2H-indazol-3-Y1)-acetamide]: 5.13; for `Cc1cc(C(=O)O)cc(C)c1OCC(c1c2ccccc2nn1-c1ccc(Cl)cc1)C1CCCCC1` (racemic) [Example 29, [rac]-4-{2-[2-(4-Chloro-phenyl)-2H-indazol-3-yl]-2-cyclohexyl-ethoxy}-3,5-dimethyl-benzoic acid]: 7.59. The same measure for `Clc1ccc(-n2nc3ccccc3c2C(OCc2ccc(-c3nnn[nH]3)cc2)C2CCCCC2)cc1` (racemic) [Example 47, [rac]-2-(4-Chloro-phenyl)-3-{cyclohexyl-[4-(2H-tetrazol-5-yl)-benzyloxy]-methyl}-2H-indazole]: 8.70; for `Fc1cc2nn(-c3ccc(Cl)cc3)c(C(OCc3ccc(-c4nnn[nH]4)cc3F)C3CCCCC3)c2cc1F` (racemic) [Example 42, [rac]-2-(4-Chloro-phenyl)-3-{cyclohexyl-[2-fluoro-4-(2H-tetrazol-5-yl)-benzyloxy]-methyl}-5,6-difluoro-2H-indazole]: 7.85. `O=C(O)c1ccc(COC(c2c3ccccc3nn2-c2ccc(Cl)cc2)C2CCCCC2)cc1` (racemic) [Example 18] gave a pIC50 of 6.44. This pIC50 is 1.41 log units lower than that of the compound before.

For the compound `CC(C)(Oc1ccc(NC(=O)C(c2c3cc(F)c(F)cc3nn2-c2ccc(Cl)cc2)C2CCCCC2)c(F)c1)C(=O)O` (racemic) [Example 26, [rac]-2-(4-{2-[2-(4-Chloro-phenyl)-5,6-difluoro-2H-indazol-3-yl]-2-cyclohexyl-acetylamino}-3-fluoro-phenoxy)-2-methyl-propionic acid], the pIC50 is 6.24. To `O=C(O)c1ccc(OCC(c2c3c(nn2-c2ccc(Cl)cc2)CCCC3)C2CCCCC2)nc1` (racemic) [Example 64, [rac]-6-{2-[2-(4-Chloro-phenyl)-4,5,6,7-tetrahydro-2H-indazol-3-yl]-2-cyclohexyl-ethoxy}-nicotinic acid] belongs 6.60; to `O=C(O)c1ccc(NC(=O)C(c2c3c(nn2-c2ccc(Cl)cc2)CCCC3)C2CCCCC2)c(C(F)(F)F)c1` (racemic) [Example 20, [rac]-4-{2-[2-(4-Chloro-phenyl)-4,5,6,7-tetrahydro-2H-indazol-3-yl]-2-cyclohexyl-acetylamino}-3-trifluoromethyl-benzoic acid], 6.48.
